# In patent US8044052B2, “Biaryl ether urea compounds” (Pfizer Inc., priority 2006, dated 2011):
# Structures can show the parent of a compound that is named as a salt.
# Biological target: T1, Human FAAH (Homo sapiens, UniProt O00519)
# T1 construct: made in house
# T1 sequence (O00519 1-579): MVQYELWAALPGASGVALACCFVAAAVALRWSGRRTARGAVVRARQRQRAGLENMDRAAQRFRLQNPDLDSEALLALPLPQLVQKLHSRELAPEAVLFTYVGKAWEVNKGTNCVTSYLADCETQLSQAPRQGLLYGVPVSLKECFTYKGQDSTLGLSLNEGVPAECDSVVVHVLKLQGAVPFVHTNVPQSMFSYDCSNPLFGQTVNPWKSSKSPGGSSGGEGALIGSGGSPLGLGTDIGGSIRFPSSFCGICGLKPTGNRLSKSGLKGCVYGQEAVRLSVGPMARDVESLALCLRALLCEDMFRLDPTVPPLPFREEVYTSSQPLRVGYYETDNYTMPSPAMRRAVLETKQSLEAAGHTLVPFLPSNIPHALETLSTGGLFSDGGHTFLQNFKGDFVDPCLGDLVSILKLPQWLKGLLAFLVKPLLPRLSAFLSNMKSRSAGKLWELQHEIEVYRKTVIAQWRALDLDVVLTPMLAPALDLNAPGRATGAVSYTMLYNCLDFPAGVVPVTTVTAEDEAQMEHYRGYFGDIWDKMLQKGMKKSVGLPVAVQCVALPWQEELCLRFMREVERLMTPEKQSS
# Experiment: FAAH assay (glutamate dehydrogenase-coupled, oleamide substrate, absorbance at 340 nm)
# Type: biochemical
# Settings: irreversible inhibition, 1-4 nM FAAH, pH 7.4, 30° C., 90 min, read-out: hFAAH kinact/Ki
# Protocol: The FAAH assay was carried out in 384-well clear polystyrene plates in a total volume of 50 μl per well. All percents are by volume. To each well, was placed the reaction mixture (40 μl) containing 1-4 nM FAAH, 50 mM NaPi, pH 7.4, 3 mM α-ketoglutarate, 0.15 mM NADH, 7.5 U/ml glutamate dehydrogenase, 2 mM ADP, 1 mM EDTA, and 0.1% Triton X-100 (The concentration shown for each component is the final concentration in the assay). […] This was immediately followed by the addition of 5 μl oleamide (500 μM) dissolved in 75% EtOH/25% DMSO and the reaction mixture was mixed for 1.5 min. The final concentrations of DMSO and EtOH in the assay were each 7.5%.
# Initial velocity data (V) were obtained from the slopes of the initial progressive curves. They were plotted as a function of substrate concentration and fit to the Michaelis-Menten equation (1) using Prism (GraphPad Software, Inc., San Diego, Calif.) software to obtain Km and Vmax values.
# To obtain potencies of irreversible inhibitors, progressive curves consistent with first order inhibition kinetics (two-step irreversible inhibition mechanism) were fit to equation (2) by nonlinear least squares regressions to determine kobs values at each inhibitor concentration, where [P]t is the absorbance at time t, V0 is a constant related to the steady state rate of the uninhibited reaction, and kobs is the first order rate constant for enzyme inactivation. The inhibitor dissociation constant (Ki) and the first order rate
# [formula] constant of enzyme inactivation at infinite inhibitor concentration (kinact) were then obtained by fitting the kobs vs. [I] curves to equation (3).
row,kinact/KI [M⁻¹ s⁻¹],SMILES
1,10800,"COc1cnc(NC(=O)N2CCC(=Cc3cccc(Oc4ccc(C(F)(F)F)cn4)c3)CC2)cn1 [Example 12, N-(5-methoxypyrazin-2-yl)-4-(3-{[5-(trifluoromethyl)pyridin-2-yl]oxy}benzylidene)piperidine-1-carboxamide]"
2,2000,"O=C(Nc1cccnn1)N1CCC(=Cc2cccc(Oc3ccc(OCC(F)(F)F)cc3)c2)CC1 [Example 100, N-pyridazin-3-yl-4-{3-[4-(2,2,2-trifluoroethoxy)phenoxy]benzylidene}piperidine-1-carboxamide]"
3,1730,"COc1ncccc1NC(=O)N1CCC(=Cc2cccc(Oc3ccc(C(F)(F)F)cn3)c2)CC1 [Example 129, N-(2-methoxypyridin-3-yl)-4-(3-{[5-(trifluoromethyl)pyridin-2-yl]oxy}benzylidene)piperidine-1-carboxamide]"
4,< 11.2,"CCc1cc(Oc2cccc(C=C3CCN(C(=O)Nc4cccnn4)CC3)c2)nc(C(F)(F)F)n1 [Example 115, 4-(3-{[6-ethyl-2-(trifluoromethyl)pyrimidin-4-yl]oxy}benzylidene)-N-pyridazin-3-ylpiperidine-1-carboxamide]"
5,105,"O=C(Nc1ncc(Br)cc1CO)N1CCC(=Cc2cccc(Oc3ccc(C(F)(F)F)cn3)c2)CC1 [Example 132, N-[5-bromo-3-(hydroxymethyl)pyridin-2-yl]-4-(3-{[5-(trifluoromethyl)pyridin-2-yl]oxy}benzylidene)piperidine-1-carboxamide]"
6,1300,"O=C(Nc1ccc(Oc2cccnc2)nc1)N1CCC(=Cc2cccc(Oc3ccc(C(F)(F)F)cn3)c2)CC1 [Example 128, N-[6-(pyridin-3-yloxy)pyridin-3-yl]-4-(3-{[5-(trifluoromethyl)pyridin-2-yl]oxy}benzylidene)piperidine-1-carboxamide]"
7,2910,"COc1cncc(NC(=O)N2CCC(=Cc3cccc(Oc4ccc(C(F)(F)F)cn4)c3)CC2)n1 [Example 23, N-(6-methoxypyrazin-2-yl)-4-(3-{[5-(trifluoromethyl)pyridin-2-yl]oxy}benzylidene)piperidine-1-carboxamide]"
8,25800,"O=C(Nc1cnccn1)N1CCC(=Cc2cccc(Oc3ccc(C(F)(F)F)cn3)c2)CC1 [Example 4, N-pyrazin-2-yl-4-(3-{[5-(trifluoromethyl)pyridin-2-yl]oxy}benzylidene)piperidine-1-carboxamide]"
9,13300,"O=C(Nc1cccnc1)N1CCC(=Cc2cccc(Oc3ccc(C(F)(F)F)cn3)c2)CC1 [Example 1, N-pyridin-3-yl-4-(3-{[5-(trifluoromethyl)pyridin-2-yl]oxy}benzylidene)piperidine-1-carboxamide]"
10,4880,"O=C(Nc1ncccc1O)N1CCC(=Cc2cccc(Oc3ccc(C(F)(F)F)cn3)c2)CC1 [Example 79, N-(3-hydroxypyridin-2-yl)-4-(3-{[5-(trifluoromethyl)pyridin-2-yl]oxy}benzylidene)piperidine-1-carboxamide trifluoroacetate]"
11,4040,"N#Cc1ccc(NC(=O)N2CCC(=Cc3cccc(Oc4ccc(C(F)(F)F)cn4)c3)CC2)cn1 [Example 11, N-(6-cyanopyridin-3-yl)-4-(3-{[5-(trifluoromethyl)pyridin-2-yl]oxy}benzylidene)piperidine-1-carboxamide hydrochloride]"
12,2410,"Cc1nccnc1NC(=O)N1CCC(=Cc2cccc(Oc3ccc(C(F)(F)F)cn3)c2)CC1 [Example 24, N-(3-methylpyrazin-2-yl)-4-(3-{[5-(trifluoromethyl)pyridin-2-yl]oxy}benzylidene)piperidine-1-carboxamide]"
13,4090,"CC(C)Oc1ccc(Oc2cccc(C=C3CCN(C(=O)Nc4cccnn4)CC3)c2)nc1 [Example 52, 4-(3-(5-isopropoxypyridin-2-yloxy)benzylidene)-N-(pyridazin-3-yl)piperidine-1-carboxamide]"
14,2530,"O=C(Nc1cccnn1)N1CCC(=Cc2cc(Br)cc(Oc3ccc(C(F)(F)F)cn3)c2)CC1 [Example 63, 4-(3-bromo-5-(5-(trifluoromethyl)pyridin-2-yloxy)benzylidene)-N-(pyridazin-3-yl)piperidine-1-carboxamide]"
15,12100,"O=C(Nc1ccnnc1)N1CCC(=Cc2cccc(Oc3ccc(C(F)(F)F)cn3)c2)CC1 [Example 25, N-(pyridazin-4-yl)-4-(3-{[5-(trifluoromethyl)pyridin-2-yl]oxy}benzylidene)piperidine-1-carboxamide]"

# The remaining lines, values behind:
row,SMILES,kinact/KI [M⁻¹ s⁻¹]
1,"O=C(Nc1cccnn1)N1CCC(=Cc2cccc(Oc3ncc4ccccc4n3)c2)CC1 [Example 105, N-pyridazin-3-yl-4-[3-(quinazolin-2-yloxy)benzylidene]piperidine-1-carboxamide]",2530
2,"O=C(Nc1cccnn1)N1CCC(=Cc2cccc(Oc3nc4ccccc4s3)c2)CC1 [Example 124, 4-[3-(1,3-benzothiazol-2-yloxy)benzylidene]-N-pyridazin-3-ylpiperidine-1-carboxamide]",7400
3,"O=C(Nc1cccnn1)N1CCC(=Cc2cccc(Oc3ncc(C4CC4)cn3)c2)CC1 [Example 106, 4-{3-[(5-cyclopropylpyrimidin-2-yl)oxy]benzylidene}-N-pyridazin-3-ylpiperidine-1-carboxamide]",3330
4,"Cc1nc2c(c(Oc3cccc(C=C4CCN(C(=O)Nc5cccnn5)CC4)c3)n1)CCN(C)C2 [Example 114, 4-{3-[(2,7-dimethyl-5,6,7,8-tetrahydropyrido[3,4-d]pyrimidin-4-yl)oxy]benzylidene}-N-pyridazin-3-ylpiperidine-1-carboxamide]",< 10
5,"CCc1cnc(Oc2cccc(C=C3CCN(C(=O)Nc4cccnn4)CC3)c2)nc1 [Example 107, 4-{3-[(5-ethylpyrimidin-2-yl)oxy]benzylidene}-N-pyridazin-3-ylpiperidine-1-carboxamide]",6220
6,"Cc1ccc(NC(=O)N2CCC(=Cc3cccc(Oc4ccc(C(F)(F)F)cc4)c3)CC2)cn1 [Example 56, 4-(3-(4-(trifluoromethyl)phenoxy)benzylidene)-N-(6-methylpyridin-3-yl)piperidine-1-carboxamide]",3580
7,"O=C(Nc1cccnc1)N1CCC(=Cc2cccc(Oc3ccc(C4CC4)cn3)c2)CC1 [Example 38, 4-(3-(5-cyclopropylpyridin-2-yloxy)benzylidene)-N-(pyridin-3-yl)piperidine-1-carboxamide]",9180
8,"COc1ccc(NC(=O)N2CCC(=C(F)c3cccc(Oc4ccc(C(F)(F)F)cn4)c3)CC2)cn1 [Example 71, 4-(fluoro(3-(5-(trifluoromethyl)pyridin-2-yloxy)phenyl)methylene)-N-(6-methoxypyridin-3-yl)piperidine-1-carboxamide]",777
9,"CC(=C1CCN(C(=O)Nc2cccnc2)CC1)c1cccc(Oc2ccc(C(F)(F)F)cn2)c1 [Example 67, N-(pyridin-3-yl)-4-(1-(3-(5-(trifluoromethyl)pyridin-2-yloxy)phenyl)ethylidene)piperidine-1-carboxamide]",5980
10,"O=C(Nc1cccnn1)N1CCC(=Cc2cccc(Oc3ncc4cccnc4n3)c2)CC1 [Example 102, N-pyridazin-3-yl-4-[3-(pyrido[2,3-d]pyrimidin-2-yloxy)benzylidene]piperidine-1-carboxamide]",1390
11,"Cc1ccnc(Oc2cccc(C=C3CCN(C(=O)Nc4cccnc4)CC3)c2)c1 [Example 72, 4-{3-[(4-methylpyridin-2-yl)oxy]benzylidene}-N-pyridin-3-ylpiperidine-1-carboxamide]",681
12,"Cc1noc(NC(=O)N2CCC(=Cc3cccc(Oc4ccc(F)cc4)c3)CC2)c1C [Example 19, N-(3,4-dimethylisoxazol-5-yl)-4-[3-(4-fluorophenoxy)benzylidene]piperidine-1-carboxamide]",3450
13,"O=C(Nc1cccnc1)N1CCC(=Cc2cccc(Oc3ccc(F)cc3)c2)CC1 [Example 20, 4-[3-(4-fluorophenoxy)benzylidene]-N-pyridin-3-ylpiperidine-1-carboxamide]",2380
14,"O=C(Nc1cccnc1)N1CCC(=Cc2cccc(Oc3ccccc3)n2)CC1 [Example 92, 4-((6-phenoxypyridin-2-yl)methylene)-N-(pyridin-3-yl)piperidine-1-carboxamide]",894
